Reference: US20200404919A1, “USE OF HETEROARYL-TRIAZOLE AND HETEROARYL-TETRAZOLE COMPOUNDS AS PESTICIDES IN PLANT PROTECTION” (Bayer Aktiengesellschaft, priority 2018, published 2020)

Columns and labels:
Format in all cases: in vivo
[1] = system: Phaedon cochleariae; assay: Phaedon cochleariae - spray test; conditions: in Brassica rapa, foliar, 168 h, read-out: mortality in %
Procedure: Phaedon cochleariae—Spray Test
(§1) To produce a suitable preparation of active compound, 1 part by weight of active compound is mixed with the stated amount of solvents and is diluted with water, containing an emulsifier concentration of 1000 ppm, to the desired concentration. Further test concentrations are prepared by dilution with emulsifier containing water.
Chinese cabbage (Brassica pekinensis) leaf disks are sprayed with a preparation of the active ingredient of the desired concentration. Once dry, the leaf disks are infested with mustard beetle larvae (Phaedon cochleariae).
After 7 days mortality in % is determined. 100% means all beetle larvae have been killed and 0% means none of the beetle larvae have been killed.

[2] = system: Myzus persicae; assay: Myzus persicae - oral test; conditions: 120 h, read-out: mortality in %
Procedure: To produce a suitable preparation of active compound, 1 part by weight of active compound is mixed with the stated amount of solvent, and the concentrate is diluted with water to the desired concentration. 50 μl compound solution is filled in microtiter plates and 150 μl IPL41 insect medium (33%+15% sugar) is added to obtain a total volume of 200 μl per well. Afterwards the plates are sealed with parafilm through which a mixed population of the green peach aphid (Myzus persicae) can suck on the compound preparation.
(§2) After 5 days mortality in % is determined. 100% means all aphids have been killed and 0% means none of the aphids have been killed.

[3] = system: Aphis gossypii; assay: Aphis gossypii - oral test; conditions: 120 h, read-out: mortality in %
Procedure: Solvent: 100 parts by weight acetone
(§3) To produce a suitable preparation of active compound, 1 part by weight of active compound is mixed with the stated amount of solvent, and the concentrate is diluted with water to the desired concentration.
50 μl compound solution is filled in microtiter plates and 150 μl IPL41 insect medium (33%+15% sugar) is added to obtain a total volume of 200 μl per well. Afterwards the plates are sealed with parafilm through which a mixed population of the cotton aphid (Aphis gossypii) can suck on the compound preparation.
as §2

[4] = system: Diabrotica balteata; assay: Diabrotica balteata - spray test; conditions: 168 h, 160 μg/well, germinated wheat seeds, larvae, after 7 days, read-out: efficacy in %
Procedure: Diabrotica balteata—Spray Test
as §1, with “solvent,” for “solvents”, “and the concentrate” for “and”
Soaked wheat seeds (Triticum aestivum) are placed in a multiple well plate filled with agar and some water and are incubated for 1 day to germinate (5 seeds per well). The germinated wheat seeds are sprayed with a test solution containing the desired concentration of the active ingredient. Afterwards each unit is infected with 10-20 larvae of the banded cucumber beetle (Diabrotica balteata).
After 7 days efficacy in % is determined. 100% means all the seedlings have grown up like in the untreated, uninfected control; 0% means none of the seedlings have grown.

[5] = system: Meloidogyne incognita; assay: Meloidogyne incognita - test; conditions: 336 h, salad seedlings in sand, after 14 days, read-out: nematicidal activity (percentage of gall formation)
Procedure: Meloidogyne incognita—Test
Solvent: 125.0 parts by weight of acetone
as §3
Vessels are filled with sand, a solution of the active ingredient, a suspension containing eggs and larvae of the southern root-knot nematode (Meloidogyne incognita) and salad seeds. The salad seeds germinate and the seedlings grow. Galls develop in the roots.
After 14 days the nematicidal activity is determined on the basis of the percentage of gall formation. 100% means no galls were found and 0% means the number of galls found on the roots of the treated plants was equal to that in untreated control plants.

[6] = system: Nezara viridula; assay: Nezara viridula - spray test 1; conditions: in Hordeum vulgare, 96 h, read-out: mortality in %
Procedure: Nezara viridula—Spray Test 1
as §1, with “solvent,” for “solvents”, “and the concentrate” for “and”
Barley plants (Hordeum vulgare) infested with larvae of the southern green stink bug (Nezara viridula) are sprayed with a test solution containing the desired concentration of the active ingredient.
After 4 days mortality in % is determined. 100% means all the stink bugs have been killed; 0% means none of the stink bugs have been killed.

[7] = system: Spodoptera frugiperda; assay: Spodoptera frugiperda - spray test; conditions: in Zea mays, 168 h, read-out: mortality in %
Procedure: Spodoptera frugiperda—Spray Test
as §1
Maize (Zea mays) leaf sections are sprayed with a preparation of the active ingredient of the desired concentration. Once dry, the leaf sections are infested with fall armyworm larvae (Spodoptera frugiperda).
After 7 days mortality in % is determined. 100% means all caterpillars have been killed and 0% means none of the caterpillars have been killed.

[8] = system: Nilaparvata lugens; assay: Nilaparvata lugens - spray test 1; conditions: in Oryza sativa, 96 h, read-out: mortality in %, 500 g/ha, rice plants, after 4 days
Procedure: Nilaparvata lugens—Spray Test 1
as §1
Rice plants (Oryza sativa) are sprayed with a preparation of the active ingredient of the desired concentration and the plants are infested with the brown planthopper (Nilaparvata lugens).
After 4 days mortality in % is determined. 100% means all planthoppers have been killed and 0% means none of the planthoppers have been killed.

[9] = system: Culex quinquefasciatus; assay: Culex test (CULXFAS surface treatment & contact assay); conditions: 30 minutes exposure, 24 hours after contact, read-out: efficacy (mortality in percent); for mortality at 4 mg/m2: surface concentration 4 mg/m^2, glazed tile; for mortality at 20 mg/m2: surface concentration 20 mg/m^2, glazed tile
Procedure: Culex Test (CULXFAS Surface Treatment & Contact Assay)
Solvent: Acetone+2000 ppm rapeseed oil methyl ester (RME)
(§4) In order to produce a sufficient, active ingredient containing solution it is necessary to solve the test-compound in an acetone/RME solvent mixture. This solution is pipetted onto a glazed tile and after evaporation of the acetone, adult mosquitoes of the species Culex quinquefasciatus (Brown house mosquito) are placed onto the dried surface. The exposure time is 30 minutes.
(§5) Mortality in percent (%) is determined 24 hours after contact to the treated surface. 100% mortality means that all test-insects are dead, whereas 0% means that not a single insect died.

[10] = system: Aedes aegypti strain MONHEIM; assay: Aedes test (AEDSAE surface treatment & contact assay); conditions: 30 minutes exposure, 24 hours after contact, read-out: efficacy (mortality in percent); for mortality at 20 mg/m2: surface concentration 20 mg/m^2, glazed tile
Procedure: Aedes Test (AEDSAE Surface Treatment & Contact Assay)
Solvent: Aceton+2000 ppm rapeseed oil methyl ester (RME)
as §4, with “Aedes aegypti strain MONHEIM” for “Culex quinquefasciatus (Brown house mosquito)”
as §5

[11] = system: Musca domestica strain WHO-N; assay: Musca domestica test (MUSCDO surface treatment & contact assay); conditions: 30 minutes exposure, 24 hours after contact, read-out: efficacy (mortality in percent); for mortality at 4 mg/m2: surface concentration 4 mg/m^2, glazed tile; for mortality at 20 mg/m2: surface concentration 20 mg/m^2, glazed tile
Procedure: Musca domestica Test (MUSCDO Surface Treatment & Contact Assay)
(§6) Solvent: Aceton+2000 ppm Rapeseed oil methyl ester (RME)
as §4, with “flies” for “mosquitoes”, “Musca domestica strain WHO-N” for “Culex quinquefasciatus (Brown house mosquito)”
as §5

[12] = system: Blattella germanica strain PAULINIA; assay: Blattella germanica test (BLTTGE surface treatment & contact assay); conditions: 30 minutes exposure, 24 hours after contact, read-out: efficacy (mortality in percent); for mortality at 20 mg/m2: surface concentration 20 mg/m^2, glazed tile
Procedure: Blattella germanica Test (BLTTGE Surface Treatment & Contact Assay)
as §6
as §4, with “animals” for “mosquitoes”, “Blattella germanica strain PAULINIA” for “Culex quinquefasciatus (Brown house mosquito)”
as §5

[13] = surface concentration 4 mg/m^2, glazed tile

CC(c1ncnn1-c1ncccn1)N(CC1CC1)C(=O)c1cccc(C#N)c1 (stereo not shown) [Compound I-38, 3-cyano-N-(cyclopropylmethyl)-N-[1-(2-pyrimidin-2-yl-1,2,4-triazol-3-yl)ethyl]benzamide]
100%: mortality at 500 g/ha [1] | mortality at 20 ppm [2] | mortality at 100 ppm [3] | pest or weed control at 160 µg/disc, 160 µg/well [4] | pest or weed control at 20 ppm [5] | mortality at 500 g/ha [6]

CC(NC(=O)c1cc(C(F)(F)F)cc(C(F)(F)F)c1)c1ncnn1-c1ncccn1 (stereo not shown) [Compound I-63, N-[1-(2-pyrimidin-2-yl-1,2,4-triazol-3-yl)ethyl]-3,5-bis(trifluoromethyl)benzamide]
100%: mortality at 500 g/ha [1] | mortality at 500 g/ha [7] | mortality at 20 ppm [2] | mortality at 100 ppm [3] | pest or weed control at 160 µg/disc, 160 µg/well [4] | mortality at 500 g/ha [6] | mortality at 500 g/ha [8]
80 to 100%: mortality at 4 mg/m2 [9] | mortality at 20 mg/m2 [9] | mortality at 4 mg/m2 [10, 13] | mortality at 20 mg/m2 [10] | mortality at 4 mg/m2 [11] | mortality at 20 mg/m2 [11] | mortality at 4 mg/m2 [12, 13] | mortality at 20 mg/m2 [12]

Cc1nc(C(C)N(CC2CC2)C(=O)c2cc(Cl)cc(C(F)(F)F)c2)n(-c2ncc(F)cn2)n1 (stereo not shown) [Compound I-77, 3-chloro-N-(cyclopropylmethyl)-N-[1-[2-(5-fluoropyrimidin-2-yl)-5-methyl-1,2,4-triazol-3-yl]ethyl]-5-(trifluoromethyl)benzamide]
80 to 100%: mortality at 4 mg/m2 [9] | mortality at 20 mg/m2 [9] | mortality at 20 mg/m2 [10] | mortality at 4 mg/m2 [11] | mortality at 20 mg/m2 [11] | mortality at 20 mg/m2 [12]
100%: mortality at 500 g/ha [1] | mortality at 500 g/ha [7] | mortality at 20 ppm [2] | mortality at 100 ppm [3] | pest or weed control at 160 µg/disc, 160 µg/well [4] | mortality at 500 g/ha [6] | mortality at 500 g/ha [8]

CC(c1ncnn1-c1ncccn1)N(CC1CC1)C(=O)c1cncc(Br)c1 (stereo not shown) [Compound I-79]
90%: mortality at 500 g/ha [6]
100%: mortality at 500 g/ha [1] | pest or weed control at 160 µg/disc, 160 µg/well [4] | pest or weed control at 20 ppm [5] | mortality at 500 g/ha [8]

CC(c1ncnn1-c1ncc(Cl)cn1)N(CC1CC1)C(=O)c1cc(Cl)cc(C(F)(F)F)c1 (stereo not shown) [Compound I-80, 3-chloro-N-[1-[2-(5-chloropyrimidin-2-yl)-1,2,4-triazol-3-yl]ethyl]-N-(cyclopropylmethyl)-5-(trifluoromethyl)benzamide]
90%: pest or weed control at 20 ppm [5]
100%: mortality at 500 g/ha [1] | mortality at 500 g/ha [7] | mortality at 20 ppm [2] | mortality at 100 ppm [3] | pest or weed control at 160 µg/disc, 160 µg/well [4] | mortality at 500 g/ha [6]
